Data on 27 compounds can be found in patent publication US12622917B2, “High-activity Wnt pathway inhibitor compound” (ADLAI NORTYE BIOPHARMA CO., LTD., priority 2020, dated 2026).

The structures appear in SMILES notation.

Format in all cases: cell-based
For assay [1], the system named is Colo205-LUC-TCF/LEF M1 reporter cell line (Wnt pathway). Put plainly: Colo205-LUC-TCF/LEF M1 reporter gene (luciferase) inhibition. The settings on record: 4 hours incubation, luciferase readout. The text has this: Colo205 cell line (Cell Bank of Chinese Academy of Sciences, Cat #TCHu102) was purchased from the Cell Bank of Chinese Academy of Sciences. After expansion and subculture, in the exponential growth phase of the cells, transfection with lipo3000 liposome transfection with TCF/LEF transcription factors Driven luciferase reporter plasmid (Promega). […] The plasmid carries a resistance gene for resistance screening. Transfection was carried out in 10 cm culture dishes using conventional complete medium without resistance. After 2 days, the medium with resistance was replaced, and the culture was continued. After that, the resistant medium was replaced every 2 days, and the suspended cells were discarded. The original medium was centrifuged to remove cells and debris and retained as an adaptive medium. When the cells covered the culture dish, the cells were digested, counted, and passaged in a 96-well plate, so that the average number of cells contained in each well was 1.5/well, and the adaptive medium was used for passage. The rest of the cells were frozen. After subculture, culture for 4 hours to allow the cells to adhere to the wall, and then observe the number of cells in each well under a microscope. Wells with only 1 cell per well were labeled as monoclonal wells. Afterwards, normal culture was performed, and the culture medium was replaced every 2 days, and observed. There are holes where the monoclonal cells continue to grow in the early stage, and they are labeled twice, and can be replaced with normal resistant medium. When a monoclonal well was overgrown with a 96-well plate, it is digested and passaged to a 24-well culture plate. After the 24-well plate is overgrown, it is passaged to a 96-well plate and a 6-well plate. The cells in a 96-well plate are at least 6 wells, of which 3 wells were added with known Wnt inhibitors, and the other 3 wells were not treated. After 24 hours, the cells in the 96-well plate were added with a fluorescence detection reagent to detect the fluorescence intensity. Cell lines with fluorescent expression when not treated and decreased fluorescent light after inhibition were selected and further cultured. The Colo205-LUC-TCF/LEF-M1 cell line is one of the cell lines screened above. Its growth curve, cell shape, and cell growth state are similar to those of the original Colo205 cells, and the ratio of the fluorescent signals of the inhibitor-treated and untreated cells is the largest among all cell lines, and the ratio can reach 4-5 times when inhibited at 4 hours, which was completely suitable for the screening of Wnt inhibitors in the later stage.
The Colo205-LUC-TCF/LEF M1 cell line is a reporter tool cell stably transfected with the pGL4.49-LUC2-TCF/LEF vector. The β-catenin Wnt pathway is continuously activated. After adding the inhibitor, the Wnt pathway is inhibited. The expression of firefly luciferase regulated by the[…] cis-element decreased, and after adding the detection substrate, the detected light signal decreased accordingly, so as to detect the inhibitory effect of the compound.
To a 96-well cell culture plate, add 100 uL of the compound with a maximum concentration of 20 uM to each well, and make a 3-fold serial dilution of the compound concentration. Then 10,000 colo205 cells stably transfected with the reporter gene and 100 uL medium were inoculated into each well, and corresponding positive and negative control wells were made at the same time. Put the cells in a 5% CO2 incubator and incubate at 37° C. for 4 hours. After 4 hours, remove the culture medium, add 100 uL of reagent (Promega) containing the corresponding firefly luciferase substrate to each well, and measure the activity of luciferase reporter gene. Luminescence intensity was read with SpectraMax in full wavelength mode. […]
On the technique in general: In a reporter assay the amount or activity of a reporter protein is the signal.

The test system of another assay is Colo205. Kind of assay: Proliferation inhibition, Wnt mutant cell line Colo205. Particulars: Homo sapiens, COLO 205; Colo205, Wnt pathway-dependent, 96 hours; read-out: Antiproliferative IC50 Colo205. The source says:
(§1) The cell lines used in the experiment are Colo205 and DU4475 cell lines whose Wnt pathway is continuously activated and whose proliferation is Wnt pathway-dependent; while the BELA and RKO cell lines, whose Wnt pathway is not activated under normal circumstances and the proliferation is independent of Wnt pathway, as control cell lines. It is Judged that the inhibitory effect of the compound of the present invention on Wnt-dependent proliferation is not caused by other non-specific toxicity.
(§2) Treat the Colo205, Du4475, HELA and RKO cell lines cultured in their respective mediums in the logarithmic growth phase, collect the cells and prepare a uniform cell suspension of known concentration, and then add it to the 96-well cell culture plate Cell suspension, so that each well contains 1000 cells. Put it into a 5% CO2 incubator and incubate at 37° C. for 20-24 h. On the second day, the fully dissolved, 3-fold serially diluted compound was added to each cell culture well, so that the final maximum concentration in the cell culture well was 20 uM, and the culture was continued for 96 hours. In this test, Promega's cell viability detection test is used for detection. The more the cells proliferate, the stronger the final signal intensity will be. The detection instrument is SpectraMax, full wavelength mode. The wells only added with DMSO were used as positive control wells, and the wells that were not inoculated with cells were used as negative control wells. […] The IC50 value of cell proliferation inhibition was used to evaluate the inhibitory effect of the compound on the Wnt pathway and the toxic effect on normal cells (Table 2).

A further assay has as its system RKO. Kind of assay: Proliferation inhibition, non-Wnt mutant control cell line RKO. Particulars: Homo sapiens, Wnt-independent control cell line, 96 hours, read-out: Antiproliferative IC50 RKO.
Text: as §1, §2

As for `CN1c2nc(NCc3ccc(Oc4cnc(C(F)(F)F)nc4)nc3)nc3c2N(CCC3)C(=O)[C@@H]1C1CCOCC1` [218 (W339)], the concentration for half-maximal inhibition (IC50) – broadly, the midpoint of a concentration-inhibition curve – in assay [1] was 30 nM; in the assay on Colo205, 17 nM; in the assay with RKO, greater than 10000 nM.

As for `CN1c2nc(NCc3ccc(Oc4ccc(C(F)(F)F)nc4)nc3)nc3c2N(CCC3)C(=O)C12CCOC2` (stereo not drawn) [207 (W357)], the IC50 with Colo205 is 84 nM; in the assay with RKO, greater than 10000 nM.

In the case of `CN1c2nc(NCc3ccc(Oc4ccc(C(F)(F)F)nc4)nc3)nc3c2N(CCC3)C(=O)C12CCOCC2` [216 (W352)], the figures for the concentration for half-maximal inhibition (IC50) with Colo205 and in the assay with RKO were 39 nM and greater than 10000 nM, respectively.

As for `CN1c2nc(NCc3ccc(Oc4ccc(C(F)(F)F)nc4)nc3)nc3c2N(CCC3)C(=O)[C@@H]1C1CCOCC1` [219 (W338)], the half-maximal inhibitory concentration (IC50) is 31 nM in assay [1], 10 nM with Colo205 and greater than 10000 nM with RKO.

As to `CN1c2nc(NCc3ccc(Oc4cnc(C(F)(F)F)nc4)nc3)nc3c2N(CCC3)C(=O)C12CCOCC2` [217 (W359)], the IC50 with Colo205 is 57 nM; in the assay with RKO it was greater than 10000 nM.

With `CN1c2nc(NCc3ccc(Oc4cc(C(F)(F)F)nn4C)nc3)nc3c2N(CCC3)C(=O)[C@]1(C)CO` [223 (W403)], the IC50 is 59 nM in assay [1], 35 nM with Colo205 and greater than 10000 nM in the assay with RKO.

In assay [1], `CN1CC2(CC2)Cn2ccc3nc(NCc4cnn(Cc5ccc(C(F)(F)F)nc5)c4)nc1c32` [76 (W83)] returned an IC50 of 67 nM.

With `CN1c2nc(NCc3ccc(Oc4cnc(C(F)(F)F)nc4)nc3)nc3c2N(CCC3)C(=O)[C@]1(C)CO` [140 (W376), (S)-5-(hydroxymethyl)-4,5-dimethyl-2-(((6-((2-(trifluoromethyl)pyrimidin-5-yl)oxo)pyridine-3-Base)methyl)amino)-4,5,9,10-tetrahydro-6H,8H-pyrido[3,2,1-de]pteridin-6-one], the IC50 in the assay with Colo205 was 49 nM; in the assay on RKO it was greater than 10000 nM.

`C[C@H]1Cn2ccc3nc(NCc4cnn(CCc5ccc(F)cc5)c4)nc(c32)N1C` [66 (W43)] registered an IC50 in assay [1] of 11 nM.

Take `C[C@H]1Cn2cc(F)c3nc(NCc4cnn(Cc5ccc(F)cc5)c4)nc(c32)N1C` [64 (W23)]: the IC50 in assay [1] came out at 41 nM.

In turn, `C[C@H]1CN(C)c2nc(NCc3ccc(CCC(F)(F)F)nc3)nc3ccn1c23` [Example 20, (S)-4,6-dimethyl-N-((6-(3,3,3-trifluoropropyl)pyridin-3-yl)methyl)-5,6-dihydro-4H-pyrrole And[3,2,1-de]pteridin-2-amine] showed an IC50 in assay [1] of 93 nM.

Turning to `[2H]C([2H])([2H])N1c2nc(NCc3ccc(Oc4cnc(C(F)(F)F)nc4)nc3)nc3c2N(CCC3)C(=O)[C@]1(C)CO` [221 (W399)], the IC50 in the assay on Colo205 is 43 nM; in the assay with RKO, greater than 10000 nM.

Take `[2H]C([2H])([2H])OC[C@H]1C(=O)N2CCCc3nc(NCc4ccc(Oc5cnc(C(F)(F)F)nc5)nc4)nc(c32)N1C([2H])([2H])[2H]` [132 (W383), (S)-5-((methoxy-d3)methyl)-4-(methyl-d3)-2-(((6-((2-(trifluoromethyl)pyrimidin-5-yl)oxo)pyridin-3-yl)methyl)amino)-4,5,9,10-tetrahydro-6H,8H-pyrido[3,2,1-de]pteridin-6-one]: the IC50 in assay [1] is 42 nM; with Colo205, 25 nM; with RKO, greater than 10000 nM.

For the compound `C[C@H]1C(=O)N2CCCc3nc(NCc4ccc(Oc5ccc(C6CC6)nc5)nc4)nc(c32)N1C` [137 (W335), (S)-2-(((6-((6-cyclopropylpyridin-3-yl)oxo)pyridin-3-yl)methyl)amino)-4,5-dimethyl-4,5,9,10-tetrahydro-6H,8H-pyrido[3,2,1-de]pteridin-6-one], the IC50 was 138 nM in the assay with Colo205 and greater than 10000 nM with RKO.

On to `COCCC1C(=O)N2CCCc3nc(NCc4ccc(Oc5ccc(C(F)(F)F)nc5)nc4)nc(c32)N1C` (stereo not drawn) [213 (W355)], for which the IC50 is 69 nM in assay [1], 53 nM in the assay on Colo205 and greater than 10000 nM with RKO.

As to `CN1c2nc(NCc3ccc(Oc4cc(C(F)(F)F)nn4C)nc3)nc3c2N(CCC3)C(=O)[C@@H]1CO` [222 (W402)], the IC50 was 61 nM in the assay with Colo205 and greater than 10000 nM with RKO.

As to `[2H]C([2H])([2H])N1c2nc(NCc3cnn(Cc4ccc(C(F)(F)F)nc4)c3)nc3ccn(c23)C[C@@H]1C` [73 (W85)], the IC50 in assay [1] is 24 nM.

As for `COCCC1C(=O)N2CCCc3nc(NCc4ccc(Oc5cnc(C(F)(F)F)nc5)nc4)nc(c32)N1C` (stereo not drawn) [210 (W371)], the IC50 with Colo205 is 60 nM; with RKO it was greater than 10000 nM.

`[2H]C([2H])([2H])N1c2nc(NCc3ccc(Oc4ccc(C(F)(F)F)nc4)nc3)nc3c2N(CCC3)C(=O)[C@]1(C)CO` [220 (W398)]: the IC50 in the assay with Colo205 is 48 nM; with RKO it was greater than 10000 nM.

Regarding `CN1c2nc(NCc3ccc(Oc4ccc(C(F)(F)F)nc4)nc3)nc3c2N(CCC3)C(=O)[C@]12CCOC2` [209 (W405)], the half-inhibitory concentration (IC50) is 30 nM in the assay with Colo205 and greater than 10000 nM in the assay with RKO.

In turn, `FC1(F)C[C@H]2Cn3ccc4nc(NCc5cnn(Cc6ccc(C(F)(F)F)nc6)c5)nc(c43)N2C1` [69 (W50)] registered an IC50 in assay [1] of 21 nM.

Regarding `CN1c2nc(NCc3ccc(Oc4cnc(C(F)(F)F)nc4)nc3)nc3c2N(CCC3)C(=O)[C@]12CCOC2` [225 (W407)], the results for the IC50 in the assay with Colo205 and with RKO were 57 nM and greater than 10000 nM, respectively.

Take `COCC[C@@H]1C(=O)N2CCCc3nc(NCc4ccc(Oc5ccc(C(F)(F)F)nc5)nc4)nc(c32)N1C` [215 (W391)]: the results for the IC50 in the assay on Colo205 and with RKO were 53 nM and greater than 10000 nM, respectively.

Take `CCn1nc(C(F)(F)F)c(C2CC2)c1Oc1ccc(CNc2nc3c4c(n2)N(C)[C@@](C)(CO)C(=O)N4CCC3)cn1` [233 (W419)]: the IC50 in the assay on Colo205 is 52 nM; in the assay on RKO, greater than 10000 nM.

Consider `C[C@H]1C(=O)N2CCCc3nc(NCc4cnn(Cc5ccc(C(F)(F)F)nc5)c4)nc(c32)N1C` [Example 1, (S)-4,5-dimethyl-2-(((1-((6-(trifluoromethyl)pyridine-3-yl)methyl)-1H-pyrazol-4-yl)methyl)amino)-4,5,9,10-tetrahydro-6H,8H-pyrido[3,2,1-de]pteridin-6-one], for which it took 83 nM to reach half-maximal inhibition in assay [1] (IC50).

In turn, `CN1c2nc(NCc3ccc(Oc4cnc(C(F)(F)F)nc4)nc3)nc3c2N(CCC3)C(=O)C12CC2` [175 (W327)] registered an IC50 in assay [1] of 28 nM.

Turning to `CN1c2nc(NCc3ccc(Oc4cnc(C(F)(F)F)nc4)nc3)nc3c2N(CCC3)C(=O)[C@@]12CCOC2` [224 (W406)], the IC50 in the assay with Colo205 is 63 nM; in the assay on RKO, greater than 10000 nM.
